Experiment [1] relates to BALB/c 3T3 neo-only transfectants (18neo). In words: 51Cr-release CTL assay with T1272-specific effectors on peptide-sensitized fibroblast targets. Format: cell-based, BALB/c mice. The following applies: for % specific 51Cr release, Immune spleen cells: 0.1 μM peptide on 18neo targets, effectors spleen cells of 10 μM T1272 peptide-pulsed spleen cell-immunized BALB/c mice restimulated with 0.1 μM T1272; for % specific 51Cr release, Immune spleen cells / % specific 51Cr release, CTL line: E/T 40:1; for % specific 51Cr release, CTL line: 1.0 μM peptide on 18neo targets, short-term T1272-specific BALB/c CTL line (3 weeks in culture); for peptide concentration able to sensitize targets for lysis: titrated in the killing assay, T1272 peptide-immune splenic CTL at 40:1 (FIG. 1C). The procedure:
CTL generation: BALB/c (H-2^d) mice were immunized intravenously with 20×10^6 spleen cells pulsed with various concentrations of T1272 peptide for two hours at 37° C. and irradiated at 2,000 rad (by the method of H. Takahashi, Y. Nakagawa, K. Yokomuro, & J. A. Berzofsky, submitted). One week later, immune spleen cells (3×10^6/ml) were restimulated for six days in vitro with various concentrations of T1272 peptide in 10% Rat-T Stim, without Con A (Collaboration Research Incorporated, Bedford, Mass.) in 24-well culture plates in complete T-cell medium (CTM)(14), a 1:1 mixture of RPMI 1640 and Eagle-Hanks amino acid medium containing 10% fetal bovine serum, 2 mM L-glutamine, penicillin (100 U/ ml), streptomycin (100 μg/ml), and 5×10^−5 M 2 mercaptoethanol.
CTL Assay. Cytolytic activity of the restimulated cells was measured as described (15) by using a six-hour assay with various ^51Cr-labeled targets. For testing the peptide specificity of CTL, effectors and ^51CR-labeled targets were mixed with various concentrations of peptide at the beginning of the assay. The percentage specific ^51CR release was calculated as 100(experimental release−spontaneous release)/(maximum release−spontaneous release). Maximum release was determined from supernatants of cells that were lysed by addition of 5% Triton X-100. Spontaneous release was determined from target cells incubated without added effector cells.
To more precisely identify the T-cell epitope recognized by T1272-specific BALB/c CTL, and to test the hypothesis that the response was specific for the neo-antigenic determinant created by the mutation, a series of peptides was synthesized and various concentrations of these peptides were individually added to effectors and ^51Cr-labeled fibroblast targets at the start of the assay culture. We measured the cytotoxic activity of two types of effector cells: spleen cells from mice immunized with peptide-pulsed cells stimulated once in vitro with 0.1 μM T1272 peptide (presumably polyclonal·effector populations), and a short-term CTL line (possibly an oligoclonal population, although only three weeks in culture).
CTL effectos were spleen cells derived from die 10 μM T1272 peptide-pulsed spleen cell-immunized BALB/c mice (restimulated 6 days with 0.1 μM T1272 peptide) (left) or a short-term T1272-specific BALB/c CTL line (after 3 weeks in culture) (right). BALB/c 3T3 neo-only transfectants (18neo) (H-2^d) plus 0.1 μM synthetic peptide were used as targets with BALB/c spleen effectors or with 1.0 μM peptide for the CTL line. […] The effector/target cell ratio was 40:1. The arrow and bold-face amino acids indicate the site of the 135 Cys to Tyr mutation. Underlined amino acids correspond to human p53 residues which differ from the mouse p53.

Experiment [2] concerns HIV-1-IIIB gp160-gene transfected BALB/c.3T3 fibroblasts. In words: CTL induced by i.v. immunization with peptide-pulsed irradiated cells, 51Cr release on gp160 transfectants. The format is in vivo, BALB/c mice. The following applies: cells pulsed with the 10-mer before immunization; without adding IL-2 exogenously (FIG. 9). The procedure: CTL Generation. Immunizations were carried out either subcutaneously (s.c.) in the base of the tail, or intraperitoneally (i.p.), or intravenously (i.v.) from the tail vein with 27 G needle. Several weeks later, immune spleen cells (5×10^6/ml in 24-well culture plates in complete T-cell medium (a 1:1 mixture of RPMI 1640 and EHAA medium containing 10% FCS, 2 mM L-glutamine, 100 U/ml penicillin, 100 μg/ml streptomycin and 5×10^−5M 2-mercaptoethanol)) were restimulated for 6 days in vitro with mitomycin-C treated HIV-1-IIIB envelope gp160 gene transfected histocompatible BALB/c.3T3 fibroblasts alone or in the presence of 10% Rat Con-A supernatant-containing medium (Rat T-cell Monoclone) (Collaborative Research, Inc., Bedford, Mass.) or 10 U/ml of recombinant mouse IL-2 (rIL-2) (Genzyme, Boston, Mass.).
CTL assay. After culture for 6 days, cytolytic activity of the restimulated cells was measured as previously described (21) using a 6 hr assay with various ^51Cr-labelled targets, as indicated in the figure legends. […] The percent specific ^51Cr release was calculated as 100 (experimental release−spontaneous release)/(maximum release−spontaneous release). Maximum release was determined from supernatants of cells that were lysed by addition of 5% Triton-X 100. Spontaneous release was determined from target cells incubated without added effector cells. […]

For experiment [3], the system named is L-cell (H-2^k) transfectants expressing D^d, L^d and K^d. Put plainly: MHC-restriction mapping of T1272 peptide recognition by CTL. The format is cell-based, mouse. As to conditions: 0.1 μM peptide T1272, K^d L-cell transfectants (FIG. 2B). The procedure: MHC-restriction mapping. L-cell (H-2^k) transfectants expressing D^d (T4.8.3 (18), L^d (T1.1.1 (19) and K^d (B4III-2(20)) were used as targets, in the presence or absence of 0.1 μM peptide T1272. neo gene transfected BALB/c 3T3 fibroblasts (18neo) (H-2^d) (21) were used as a positive control, and neo gene-transfected L-cells L28 (H-2^k) (21) were used as a negative target control, also in the presence or absence of peptide.
The BALB/c 3T3 (18neo) fibroblasts (H-2^d) used as targets in these experiments express class I but not class II MHC gene products.
In this experiment, 2×10^3 51Cr-labeled targets were cultured with T1272-immune splenic effector cells (a short-term line stimulated twice with 0.1 μM peptide) at several effector/target cell ratios in the presence or absence of 0.1 μM peptide T1272. L-cell (H-2^k) transfectants expressing D^d (T4.8.3 (18)), L^d (T1.1.1 (19)) and K^d (B4III-2 (20)) were used as targets. neo gene transfected BALB/c 3T3 fibroblasts (isneo) (H-2^d) (21) were used as a positive control, and neo gene-transfected L-cells L28 (H-2^k) (21) were used as a negative target control. Spontaneous release was less than 20% of maximal release. Although background without peptide varied among the different transfectants from experiment to experiment, T1272 peptide-specific lysis was consistently seen only in the cells expressing K^d, in five different experiments. […]

The record followed here is US20030086911A1, “Methods and compositions for the stimulation of human immunodeficiency virus-specific cytotoxic T lymphocytes employing autologous antigen-peripheral blood mononuclear cells” (Department of Health and Human Services, priority 1993, published 2003).

Bounds are passed on as bounds.

Take ALNKMFYQLAKT [Peptide T12]: in experiment [1], the “% specific 51Cr release, Immune spleen cells” value was 9.7% and the “% specific 51Cr release, CTL line” value is −9.1%.
For the sequence FYQLAKTCPV [Peptide V10], in experiment [1], the “% specific 51Cr release, Immune spleen cells” value worked out at 62.7% and the “% specific 51Cr release, CTL line” value is given as 53.7%.
With “KMFYQLAKTCPVQL [Peptide L14, C-terminal 14 residues of the T1272 peptide]”, in experiment [1], the “% specific 51Cr release, Immune spleen cells” value is on record as 22.2% and the “% specific 51Cr release, CTL line” value was found to be 22.1%.
RGPGRAFVTI [Peptide 18IIIB-I-10]: in experiment [2], the “priming of CD8+ CTL by minimal peptide” value is listed as “can prime CD8^+ CTL almost as well as 18IIIB”.
In the case of RIQRGPGRAFVTIGK [Peptide P18IIIB], in experiment [1], the “peptide concentration able to sensitize targets for lysis” value is on record as “not recognized at any concentration”.
Regarding TYSPALNKMFYQL [Peptide L13], in experiment [1], the “% specific 51Cr release, Immune spleen cells” value is listed as 14.7% and the “% specific 51Cr release, CTL line” value is reported as −8.9%.
As to TYSPALNKMFYQLAKTCPVQL [Peptide T1272], in experiment [1], the “% specific 51Cr release, Immune spleen cells” value is 35.4%; the “% specific 51Cr release, CTL line” value came to 24.7%; the “peptide concentration able to sensitize targets for lysis” value was under 0.1 µM. Further, the “class I MHC restriction of peptide recognition by CTL” value in experiment [3] is on record as “restricted by the class I molecule K^d”.
